# Measured values reported in patent US9557338B2 (SIGNAL PHARMACEUTICALS, LLC, priority 2012, dated 2017).
# Where two headings read alike, the source gives them in different places.
# Columns and labels:
# Assay type in all cases: cell-based
# Phospho-p70S6K (T389) = assay: MSD assay, phospho-p70S6K (T389) in cell lysates
# Description: Determination of Phospho-p70S6K (T389) in Cell Lysates.
# MSD® biomarker detection assays provide a rapid and convenient method for measuring the total and phosphorylated levels of protein targets within a single small-volume sample. In the assay, an antibody for a specific protein target is coated on one electrode (or spot) per well. The samples (cell lysates) are added to the well with a solution containing the detection antibody labeled with an electrochemiluminescent (ECL) compound, MSD SULFOTAG™ label, over the course of one or more incubation periods. The total protein present in the sample binds to the capture antibodies immobilized on the working electrode surface; recruitment of the labeled detection antibody by bound phospho-p70S6K completes the sandwich. MSD Read Buffer that provides the appropriate chemical environment for ECL is added and the plate is read using an MSD SECTOR™ Imager. Inside the SECTOR Imager, a voltage is applied to the plate electrodes which cause the labels bound to the electrode surface to emit light. The instrument measures intensity of the emitted light to afford a quantitative measure of the amount of phosphorylated protein present in the sample.
# Cells were plated in 96-well flat bottom plates at the required density determined for each cell line and the cells were allowed to equilibrate at 37° C., 5% CO2 overnight. The following day, the cells were treated with Compound 1 over a range of concentrations for one hour in 5% CO2 at 37° C. After the incubation period, the culture medium was removed carefully with an aspirator. The plate was placed on ice and 50 μL of 1× Tris Lysis Buffer were added to each well. The plate was placed on a shaker at 4° C. for one hour to lyse the cells. At that point, the plate was either frozen at −80° C. for later analysis or immediately assayed for phosphoproteins as described below. To monitor interassay variability, Compound 1 was compared among all plates as a reference standard.
# The assay plate was incubated with 150 μL of MSD Blocking Buffer for one hour with shaking at room temperature. The plates were washed 3 times with Tris Wash Buffer. Then 35 μL of cell lysate was added to the wells and incubated for one hour with shaking at room temperature. The solution was removed from the wells and the plate was washed 3 times with wash buffer. Twenty-five microliters of the appropriate antibody solution was then incubated for one hour with shaking at room temperature. The solution was removed from the wells and the plate was washed 3 times with wash buffer. Then 150 μL of 1×MSD Read Buffer T was added to each well. The plate was read on the SECTOR Imager plate reader.
# p70S6K = assay: Luminex multiplex assay, p70S6K phosphorylation in cell lysates
# GSK-3β = assay: MSD assay, GSK-3β phosphorylation in cell lysates
# Phospho-PRAS40(T246) = assay: Luminex multiplex assay, Phospho-PRAS40(T246); conditions: PC3 cell line; read-out: Luminex PRAS40
# Procedure, shortened: (§1)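 Cells (PC3; HCT-116, MDA-MB-231 and HT29 with 500 ng/mL recombinant human IGF-I for the final 10 min) treated with compound or rapamycin over a concentration range for 1 h at 37° C, 5% CO2. Lysates read by bead-based Luminex sandwich immunoassay, 3 h at room temperature, RPE anti-rabbit detection, quantified against phosphoprotein standard curves.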
# Phospho-GSK3β(S9) = assay: Luminex multiplex assay, Phospho-GSK3β(S9); conditions: PC3 cell line; read-out: Luminex GSK-3β
# Procedure, shortened: as §1
# [1] = PC3 cell line, read-out: MSD p70S6K
# [2] = PC3 cell line, read-out: Luminex p70S6K
# [3] = PC3 cell line, read-out: MSD GSK-3β
SMILES,IC50 (Phospho-GSK3β(S9)) [nM],IC50 (Phospho-p70S6K (T389); [1]) [nM],IC50 (GSK-3β; [3]) [nM],also measured
"COCCN1C(=O)CNc2ncc(-c3ccc(-c4nnc[nH]4)nc3C)nc21 [A-9, 1-(2-methoxyethyl)-7-(2-methyl-6-(4H-1,2,4-triazol-3-yl)pyridin-3-yl)-3,4-dihydropyrazino[2,3-b]pyrazin-2(1H)-one]",,,,"IC50 (Phospho-p70S6K (T389); Homo sapiens, HCT-116, HCT116 cell line, IGF, read-out: MSD p70S6K (IGF)): 846 nM; IC50 (Phospho-p70S6K (T389); Homo sapiens, U-87 MG, U87MG cell line, read-out: MSD p70S6K): 268 nM; IC50 (p70S6K; Homo sapiens, HCT-116, HCT116 cell line, IGF, read-out: Luminex p70S6K (IGF)): 103 nM; IC50 (p70S6K; Homo sapiens, U-87 MG, U87MG cell line, read-out: Luminex p70S6K): 37.7 nM; IC50 (GSK-3β; Homo sapiens, HCT-116, HCT116 cell line, IGF, read-out: MSD GSK-3β (IGF)): > 2000 nM; IC50 (GSK-3β; Homo sapiens, U-87 MG, U87MG cell line, read-out: MSD GSK-3β): > 2000 nM"
O=c1[nH]c2ncc(-c3ccc(-c4nc[nH]n4)cc3)nc2n1CCC1CCOCC1 [C-2],255,46,> 1500,IC50 (Phospho-PRAS40(T246)): 180 nM; IC50 (p70S6K; [2]): 30 nM
Cc1nc(-c2nnc[nH]2)ccc1-c1cnc2c(n1)N(CCC1CCOCC1)C(=O)CN2 [C-9],43,4,213,IC50 (Phospho-PRAS40(T246)): 37 nM
CCn1c(=O)[nH]c2ncc(-c3ccc(-c4ncn[nH]4)c(F)c3C)nc21 [C-12],936,436,> 5000,IC50 (Phospho-PRAS40(T246)): 1120 nM; IC50 (p70S6K; [2]): 79 nM
COCCN1C(=O)CNc2ncc(-c3ccc(-c4nnc[nH]4)nc3C)nc21 [C-14],366,31,366,IC50 (Phospho-PRAS40(T246)): 61 nM
COC1CCC(N2C(=O)CNc3ncc(-c4ccc(C(C)(C)O)nc4)nc32)CC1 (centres unmarked) [C-15],240,82,> 500,IC50 (Phospho-PRAS40(T246)): 96 nM; IC50 (p70S6K; [2]): 32 nM
COC1CCC(N2C(=O)CNc3ncc(-c4ccc(-c5nnc[nH]5)nc4C)nc32)CC1 (centres unmarked) [C-16],141,13,152,IC50 (Phospho-PRAS40(T246)): 43 nM; IC50 (p70S6K; [2]): 3 nM
CCN1C(=O)CNc2ncc(-c3ccc(-c4nnc[nH]4)nc3C)nc21 [C-54],370,31,181,IC50 (Phospho-PRAS40(T246)): 39 nM; IC50 (p70S6K; [2]): 13 nM
Cc1nc(-c2nnc[nH]2)ccc1-c1cnc2c(n1)N(C(C)C)C(=O)CN2 [C-69],342,80,394,IC50 (Phospho-PRAS40(T246)): 285 nM
COC1CCC(N2C(=O)CNc3ncc(-c4cnc(-c5ncn[nH]5)cc4C)nc32)CC1 (centres unmarked) [C-93],2,1,> 1.5,
CCN1C(=O)CNc2ncc(-c3cnc4[nH]ccc4c3)nc21 [C-103],153,> 500,> 500,IC50 (Phospho-PRAS40(T246)): 696 nM; IC50 (p70S6K; [2]): 150 nM
Cc1cc(-c2nc[nH]n2)c(F)cc1-c1cnc2c(n1)N(CC1CCC(O)CC1)CC(=O)N2 (centres unmarked) [C-143],,4,> 500,
O=C1CN([C@H]2CC[C@H](O)CC2)c2nc(-c3ccc(-c4nc[nH]n4)nc3)cnc2N1 [C-144],,> 500,> 500,
O=C1CNc2ncc(-c3cccc4[nH]ccc34)nc2N1CCC1CCOCC1 [C-145],,> 500,> 500,
COC1CCC(N2CC(=O)Nc3ncc(-c4ccc(-c5ncn[nH]5)nc4)nc32)CC1 (centres unmarked) [C-146],,12,> 500,
Cc1cc(-c2nc[nH]n2)c(F)cc1-c1cnc2c(n1)N(CC1CCC(O)CC1)C(=O)CN2 (centres unmarked) [C-147],,< 1.5,> 500,
COC1CCC(N2CC(=O)Nc3ncc(-c4cc(F)c(-c5nc[nH]n5)cc4C)nc32)CC1 (centres unmarked) [C-148],,< 1.5,65,

SMILES,IC50 (Phospho-GSK3β(S9)) [nM],IC50 (Phospho-p70S6K (T389); [1]) [nM],IC50 (GSK-3β; [3]) [nM],also measured
O=C1CN(CC2CCC(O)CC2)c2nc(-c3ccc(-c4nc[nH]n4)nc3)cnc2N1 (centres unmarked) [C-149],,173,> 5000,
CCN1C(=O)CNc2ncc(-c3ccc(-c4ncn[nH]4)nc3)nc21 [C-150],,38,> 500,
COCCN1C(=O)CNc2ncc(-c3ccc(-c4ncn[nH]4)nc3)nc21 [C-151],,120,> 500,
O=C1CNc2ncc(-c3ccc(-c4nc[nH]n4)nc3)nc2N1C1CCOCC1 [C-152],,20,> 500,
O=C1CN(C2CCC(O)CC2)c2nc(-c3ccc(-c4nc[nH]n4)nc3)cnc2N1 (centres unmarked) [C-153],,> 500,> 500,
O=C1CN(CC2CCC(O)CC2)c2nc(-c3ccc(-c4nc[nH]n4)nc3)cnc2N1 (centres unmarked) [C-154],,1520,> 5000,
Cc1cc(-c2nc[nH]n2)c(F)cc1-c1cnc2c(n1)N([C@H]1CC[C@@H](O)CC1)C(=O)CN2 [C-155],,40,240,
COC1CCC(CN2C(=O)CNc3ncc(-c4ccc(-c5nc[nH]n5)nc4)nc32)CC1 (centres unmarked) [C-159],,6,> 500,
CO[C@H]1CC[C@@H](CN2CC(=O)Nc3ncc(-c4cc(F)c(-c5nc[nH]n5)cc4C)nc32)CC1 [C-160],,< 1.5,> 500,
O=C1CNc2ncc(-c3ccnc4[nH]ccc34)nc2N1CCC1CCOCC1 [C-161],,385,2790,
O=C1CNc2ncc(-c3cccc4[nH]cnc34)nc2N1CCC1CCOCC1 [C-162],,4750,> 5000,
COC1CCC(CN2CC(=O)Nc3ncc(-c4cc(F)c(-c5nc[nH]n5)cc4C)nc32)CC1 (centres unmarked) [C-163],,> 500,> 500,
Cc1cc(-c2nc[nH]n2)ncc1-c1cnc2c(n1)N(CC1CCOCC1)CC(=O)N2 [C-164],,1,275,
CCN1C(=O)CNc2ncc(-c3ccc4[nH]ccc4n3)nc21 [C-166],,> 500,> 500,
COC1CCC(CN2C(=O)CNc3ncc(-c4cc(F)c(-c5nc[nH]n5)cc4C)nc32)CC1 (centres unmarked) [C-167],,< 1.5,< 1.5,
O=C1CN(CCC2CCOCC2)c2nc(-c3c[nH]c4ncccc34)cnc2N1 [C-169],,419,2820,
